In US12024510B2, “Pyrazolopyridine-diamides, their use as insecticide and processes for preparing the same” (PI INDUSTRIES LTD., priority 2017, dated 2024):

Assays:
Type in all cases: in vivo
[1] = tested on: Helicoverpa armigera; test: Helicoverpa armigera diet incorporation method; conditions: third instar larvae, dead and moribund combined, 96 h after release
Outline: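 Third-instar larvae, starved, were placed singly on diet pieces containing test dispersion (bead-milled in surfactant, particles under 2 μm, 500 ppm stock then diluted). Trays kept at 25° C. and 70% RH; mortality counted at 96 h, moribund larvae counted with dead.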

[2] = tested on: Plutella xylostella; test: whole plant or invertebrate; conditions: foliar, cabbage leaf dip, second instar larvae, dead and moribund combined, 72 h after release
Outline: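 Leaf-dip bioassay: second-instar larvae, singly, fed on cabbage leaves dipped 10 s in test dispersion (bead-milled, diluted with 0.01% Triton-X to test concentration) and dried 20 min. Held at 25 °C, 70% RH; % mortality counts dead and moribund at 72 h.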

[3] = tested on: Spodoptera litura; test: Spodoptera litura diet incorporation method; conditions: third instar larvae, dead and moribund combined, 96 h after release
Outline: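 Compound milled to <2 μm average particle size in surfactant, dispersed in water (500 ppm stock dispersion), then mixed into semi-synthetic diet at ~50° C. One starved third-instar larva per diet cell, 25° C, 70% RH; percent mortality (dead plus moribund) scored at 96 h.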

Measured: mortality at 300 ppm

CONC(=O)c1c(NC(=O)c2cc(C(F)(F)F)nn2-c2ncccc2Cl)c(C)cc2ccnn12 [Compound 93, 6-(1-(3-chloropyridin-2-yl)-3-(trifluoromethyl)-1H-pyrazole-5-carboxamido)-N-methoxy-5-methylpyrazolo[1,5-a]pyridine-7-carboxamide]
> 70%: all assays above

O=C(Nc1c(Br)cc2ccnn2c1C(=O)NCC1CC1)c1cc(Br)nn1-c1ncccc1Cl [Compound 54, 5-bromo-6-(3-bromo-1-(3-chloropyridin-2-yl)-1H-pyrazole-5-carboxamido)-N-(cyclopropylmethyl)pyrazolo[1,5-a]pyridine-7-carboxamide]
> 70%: all assays above

C=CCNC(=O)c1c(NC(=O)c2cc(OCC(F)(F)F)nn2-c2ncccc2Cl)c(C)cc2ccnn12 [Compound 20, N-allyl-6-(1-(3-chloropyridin-2-yl)-3-(2,2,2-trifluoroethoxy)-1H-pyrazole-5-carboxamido)-5-methylpyrazolo[1,5-a]pyridine-7-carboxamide]
> 70%: all assays above

CNC(=O)c1c(NC(=O)c2cc(Br)nn2-c2ncccc2Cl)c(Cl)cc2ccnn12 [Compound 148, 6-(3-bromo-1-(3-chloropyridin-2-yl)-1H-pyrazole-5-carboxamido)-5-chloro-N-methylpyrazolo[1,5-a]pyridine-7-carboxamide]
> 70%: all assays above

COc1cc(C(=O)Nc2c(C)cc3ccnn3c2C(=O)NC2CSC2)n(-c2ncccc2Cl)n1 [Compound 215, 6-(1-(3-chloropyridin-2-yl)-3-methoxy-1H-pyrazole-5-carboxamido)-5-methyl-N-(thietan-3-yl)pyrazolo[1,5-a]pyridine-7-carboxamide]
> 70%: all assays above

CC(C)(C)NC(=O)c1c(NC(=O)c2cc(Br)nn2-c2ncccc2Cl)c(Br)cc2ccnn12 [Compound 53, 5-bromo-6-(3-bromo-1-(3-chloropyridin-2-yl)-1H-pyrazole-5-carboxamido)-N-(tert-butyl)pyrazolo[1,5-a]pyridine-7-carboxamide]
> 70%: all assays above

COc1cc(C(=O)Nc2c(C)cc3ccnn3c2C(=O)NCC2CC2)n(-c2ncccc2Cl)n1 [Compound 27, 6-(1-(3-chloropyridin-2-yl)-3-methoxy-1H-pyrazole-5-carboxamido)-N-(cyclopropylmethyl)-5-methylpyrazolo[1,5-a]pyridine-7-carboxamide]
> 70%: all assays above

COc1cc(C(=O)Nc2c(C)cc3ccnn3c2C(=O)NC(C)C2CC2)n(-c2ncccc2Cl)n1 (stereo not drawn) [Compound 99, 6-(1-(3-chloropyridin-2-yl)-3-methoxy-1H-pyrazole-5-carboxamido)-N-(1-cyclopropylethyl)-5-methylpyrazolo[1,5-a]pyridine-7-carboxamide]
> 70%: all assays above

COc1cc(C(=O)Nc2c(Cl)cc3ccnn3c2C(=O)NCC(F)(F)F)n(-c2ncccc2Cl)n1 [Compound 137, 5-chloro-6-(1-(3-chloropyridin-2-yl)-3-methoxy-1H-pyrazole-5-carboxamido)-N-(2,2,2-trifluoroethyl)pyrazolo[1,5-a]pyridine-7-carboxamide]
> 70%: all assays above

Cc1cc2ccnn2c(C(=O)NCC(F)(F)F)c1NC(=O)c1cc(C(F)(F)F)nn1-c1ncccc1Cl [Compound 109, 6-(1-(3-chloropyridin-2-yl)-3-(trifluoromethyl)-1H-pyrazole-5-carboxamido)-5-methyl-N-(2,2,2-trifluoroethyl)pyrazolo[1,5-a]pyridine-7-carboxamide]
> 70%: all assays above

Cc1cc2ccnn2c(C(=O)NC2CC2)c1NC(=O)c1cc(C(F)(F)F)nn1-c1ncccc1Cl [Compound 61, 6-(1-(3-chloropyridin-2-yl)-3-(trifluoromethyl)-1H-pyrazole-5-carboxamido)-N-cyclopropyl-5-methylpyrazolo[1,5-a]pyridine-7-carboxamide]
> 70%: all assays above

CNC(=O)c1c(NC(=O)c2cc(Br)nn2-c2ncccc2Cl)c(C)cc2ccnn12 [Compound 1, 6-(3-bromo-1-(3-chloropyridin-2-yl)-1H-pyrazole-5-carboxamido)-N,5-dimethylpyrazolo[1,5-a]pyridine-7-carboxamide]
> 70%: all assays above

CNC(=O)c1c(NC(=O)c2cc(Cn3nnc(C(F)(F)F)n3)nn2-c2ncccc2Cl)c(C)cc2ccnn12 [Compound 166, 6-(1-(3-chloropyridin-2-yl)-3-((5-(trifluoromethyl)-2H-tetrazol-2-yl)methyl)-1H-pyrazole-5-carboxamido)-N,5-dimethylpyrazolo[1,5-a]pyridine-7-carboxamide]
> 70%: all assays above

Cc1cc2ccnn2c(C(=O)NCCC#N)c1NC(=O)c1cc(Br)nn1-c1ncccc1Cl [Compound 22, 6-(3-bromo-1-(3-chloropyridin-2-yl)-1H-pyrazole-5-carboxamido)-N-(2-cyanoethyl)-5-methylpyrazolo[1,5-a]pyridine-7-carboxamide]
> 70%: all assays above

COc1cc(C(=O)Nc2c(C)cc3ccnn3c2C(=O)NCCC#N)n(-c2ncccc2Cl)n1 [Compound 41, 6-(1-(3-chloropyridin-2-yl)-3-methoxy-1H-pyrazole-5-carboxamido)-N-(2-cyanoethyl)-5-methylpyrazolo[1,5-a]pyridine-7-carboxamide]
> 70%: all assays above

Cc1cc2ccnn2c(C(=O)NC(C)C2CC2)c1NC(=O)c1cc(Br)nn1-c1ncccc1Cl (stereo not drawn) [Compound 95, 6-(3-bromo-1-(3-chloropyridin-2-yl)-1H-pyrazole-5-carboxamido)-N-(1-cyclopropylethyl)-5-methylpyrazolo[1,5-a]pyridine-7-carboxamide]
> 70%: all assays above

Cc1cc2ccnn2c(C(=O)NC(C)(C)CO)c1NC(=O)c1cc(Br)nn1-c1ncccc1Cl [Compound 196, 6-(3-bromo-1-(3-chloropyridin-2-yl)-1H-pyrazole-5-carboxamido)-N-(1-hydroxy-2-methylpropan-2-yl)-5-methylpyrazolo[1,5-a]pyridine-7-carboxamide]
> 70%: all assays above

C=CCNC(=O)c1c(NC(=O)c2cc(Br)nn2-c2ncccc2Cl)c(Br)cc2ccnn12 [Compound 56, N-allyl-5-bromo-6-(3-bromo-1-(3-chloropyridin-2-yl)-1H-pyrazole-5-carboxamido)pyrazolo[1,5-a]pyridine-7-carboxamide]
> 70%: all assays above

C#CCNC(=O)c1c(NC(=O)c2cc(OC)nn2-c2ncccc2Cl)c(C)cc2ccnn12 [Compound 45, 6-(1-(3-chloropyridin-2-yl)-3-methoxy-1H-pyrazole-5-carboxamido)-5-methyl-N-(prop-2-yn-1-yl)pyrazolo[1,5-a]pyridine-7-carboxamide]
> 70%: all assays above

Cc1cc2ccnn2c(C(=O)NCC(F)(F)F)c1NC(=O)c1cc(Br)nn1-c1ncccc1Cl [Compound 96, 6-(3-bromo-1-(3-chloropyridin-2-yl)-1H-pyrazole-5-carboxamido)-5-methyl-N-(2,2,2-trifluoroethyl)pyrazolo[1,5-a]pyridine-7-carboxamide]
> 70%: all assays above

C=CCNC(=O)c1c(NC(=O)c2cc(OC)nn2-c2ncccc2Cl)c(C)cc2ccnn12 [Compound 44, N-allyl-6-(1-(3-chloropyridin-2-yl)-3-methoxy-1H-pyrazole-5-carboxamido)-5-methylpyrazolo[1,5-a]pyridine-7-carboxamide]
> 70%: all assays above
